Assays:
Format in all cases: in vivo
Abutilon theophrasti = test: Post-emergence herbicidal action, ABUTH; set-up: key: % herbicidal action vs untreated; 100 = plants died, 0 = like control
Summary of the method: (§1)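 Percent herbicidal effect was rated visually about 3 weeks after treatment, relative to untreated plants (0% = like control, 100% = dead). Compounds, formulated as WP or EC, went on as aqueous spray (600–800 l/ha, 0.2% wetting agent) to one-leaf-stage plants 2–3 weeks post-sowing in sandy loam.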

Echinochloa crus-galli = test: Post-emergence herbicidal action, ECHCG; set-up: key: % herbicidal action vs untreated; 100 = plants died, 0 = like control
Summary of the method: as §1

Pharbitis purpurea [1] = test: Post-emergence herbicidal action, PHBPU
Summary of the method: as §1

Pharbitis purpurea [2] = test: Pre-emergence herbicidal action, PHBPU; details: for herbicidal activity PHBPU: dosage 320 g/ha, scored visually after 3 weeks vs untreated controls (100% = plants have died)
Summary of the method: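 Sown pots (sandy loam) sprayed pre-emergence → greenhouse → visual rating at 3 weeks; % activity vs untreated control, 100% = dead.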

Cyperus esculentus = test: Post-emergence herbicidal action, CYPES; set-up: key: % herbicidal action vs untreated; 100 = plants died, 0 = like control
Summary of the method: as §1

| SMILES | herbicidal action ABUTH (Abutilon theophrasti; Dosage 80 g/ha) | herbicidal action ECHCG (Echinochloa crus-galli; Dosage 80 g/ha) | herbicidal action PHBPU (Pharbitis purpurea [1]; Dosage 80 g/ha) | herbicidal activity PHBPU (Pharbitis purpurea [2]) | also measured |
| --- | --- | --- | --- | --- | --- |
| CCn1nnnc1NC(=O)c1ccc(C(F)F)c(CSC)c1C [Example 2-107] | 90 | 90 | 90 |  |  |
| Cc1c(C(=O)Nc2nnnn2C)ccc(C(F)F)c1CS(C)(=O)=O [Example 1-109] | 90 | 100 | 100 | 80% | herbicidal action CYPES (Cyperus esculentus; Dosage 80 g/ha): 80 |
| Cn1nnnc1NC(=O)c1ccc(C(F)(F)F)c(CS(C)(=O)=O)c1F [Example 1-244] | 90 | 90 | 100 | 90% |  |
| CCCn1nnnc1NC(=O)c1ccc(C(F)F)c(CSC)c1Cl [Example 3-320] | 100 | 100 | 90 |  |  |
| Cn1nnnc1NC(=O)c1ccc(C(F)(F)F)c(C[S+](C)[O-])c1F (stereo not drawn) [Example 1-243] | 90 | 100 | 100 | 80% |  |
| Cc1ccc(C(=O)Nc2nnnn2C)c(Cl)c1CS(C)(=O)=O [Example 1-289] |  | 100 | 90 |  |  |
| CCCn1nnnc1NC(=O)c1ccc(C(F)(F)F)c(C[S+](C)[O-])c1Br (stereo not drawn) [Example 3-381] |  |  |  |  | herbicidal action ABUTH (Abutilon theophrasti; post-emergence, dosage 80 g/ha): 90%; herbicidal action CYPES (Cyperus esculentus; post-emergence, dosage 80 g/ha): 90%; herbicidal action ECHCG (Echinochloa crus-galli; post-emergence, dosage 80 g/ha): 90%; herbicidal action PHBPU (Pharbitis purpurea [1]; post-emergence, dosage 80 g/ha): 100% |
| COc1c(C(=O)Nc2nnnn2C)ccc(C(F)(F)F)c1CSC [Example 1-134] | 100 | 100 | 100 | 80% | Herbicidal action against PHBPU (Pharbitis purpurea [2]; comparative experiment, 20 g of a.i./ha): 20; Herbicidal action against ECHCG (Echinochloa crus-galli; post-emergence, dosage 80 g/ha): 90; Herbicidal action against PHBPU (Pharbitis purpurea [1]; post-emergence, dosage 80 g/ha): 90 |
| CCCn1nnnc1NC(=O)c1ccc(C(F)(F)F)c(CS(=O)(=O)CC)c1C [Example 3-88] | 80 | 90 | 90 | 90% |  |
| CCCn1nnnc1NC(=O)c1ccc(C(F)(F)F)c(CSC)c1OC [Example 3-134] | 100 | 100 | 100 |  |  |
| CCn1nnnc1NC(=O)c1ccc(C(F)(F)F)c(C[S+](C)[O-])c1OC (stereo not drawn) [Example 2-135] | 100 | 100 | 100 |  |  |
| CCCn1nnnc1NC(=O)c1ccc(C(F)F)c(C[S+]([O-])CC)c1Cl (stereo not drawn) [Example 3-324] | 100 | 100 | 100 | 90% | herbicidal action CYPES (Cyperus esculentus; Dosage 80 g/ha): 90 |
| CCSCc1c(C(F)(F)F)ccc(C(=O)Nc2nnnn2C)c1C [Example 1-86] |  |  |  | 80% | herbicidal action ABUTH (Abutilon theophrasti; post-emergence, dosage 80 g/ha): 80%; herbicidal action CYPES (Cyperus esculentus; post-emergence, dosage 80 g/ha): 80%; herbicidal action ECHCG (Echinochloa crus-galli; post-emergence, dosage 80 g/ha): 80%; herbicidal action PHBPU (Pharbitis purpurea [1]; post-emergence, dosage 80 g/ha): 90% |
| CCCn1nnnc1NC(=O)c1ccc(C(F)(F)F)c(C[S+](C)[O-])c1Cl (stereo not drawn) [Example 3-297] |  |  |  | 80% | herbicidal action ABUTH (Abutilon theophrasti; post-emergence, dosage 80 g/ha): 80%; herbicidal action CYPES (Cyperus esculentus; post-emergence, dosage 80 g/ha): 80%; herbicidal action ECHCG (Echinochloa crus-galli; post-emergence, dosage 80 g/ha): 80%; herbicidal action PHBPU (Pharbitis purpurea [1]; post-emergence, dosage 80 g/ha): 90% |
| CSCc1c(C(F)(F)F)ccc(C(=O)Nc2nnnn2C)c1F [Example 1-242] | 90 | 100 | 100 |  | herbicidal action CYPES (Cyperus esculentus; Dosage 80 g/ha): 80 |
| C=CCSCc1c(C(F)(F)F)ccc(C(=O)Nc2nnnn2C)c1Cl [Example 1-308] |  |  |  | 100% | herbicidal action ABUTH (Abutilon theophrasti; post-emergence, dosage 80 g/ha): 100%; herbicidal action CYPES (Cyperus esculentus; post-emergence, dosage 80 g/ha): 90%; herbicidal action ECHCG (Echinochloa crus-galli; post-emergence, dosage 80 g/ha): 100%; herbicidal action PHBPU (Pharbitis purpurea [1]; post-emergence, dosage 80 g/ha): 100% |
| CCCn1nnnc1NC(=O)c1ccc(C(F)(F)F)c(CS(C)(=O)=O)c1OC [Example 3-136] | 100 | 100 | 90 |  |  |
| CCn1nnnc1NC(=O)c1ccc(C)c(CSC)c1Cl [Example 2-287] | 80 | 100 | 90 |  |  |
| CCCn1nnnc1NC(=O)c1ccc(C(F)(F)F)c(CSC)c1Br [Example 3-380] | 80 | 90 | 90 | 90% |  |
| CCCn1nnnc1NC(=O)c1ccc(C(F)F)c(CSC)c1C [Example 3-107] | 80 | 90 | 80 |  |  |
| CCn1nnnc1NC(=O)c1ccc(C(F)(F)F)c(CS(C)(=O)=O)c1OC [Example 2-136] | 100 | 100 | 90 |  |  |
| Cn1nnnc1NC(=O)c1ccc(C(F)(F)F)c(CS(C)(=O)=O)c1Br [Example 1-382, 2-bromo-3-[(methylsulfonyl)methyl]-N-(1-methyl-1H-tetrazol-5-yl)-4-(trifluoromethyl)benzamide] | 100 | 90 | 100 |  |  |
| CSCc1c(C(F)F)ccc(C(=O)Nc2nnnn2C)c1C [Example 1-107, 4-(difluoromethyl)-2-methyl-3-[(methylsulfanyl)methyl]-N-(1-methyl-1H-tetrazol-5-yl)benzamide] | 80 | 90 | 80 | 90% | Herbicidal action against ECHCG (Echinochloa crus-galli; comparative experiment, post-emergence, 5 g of a.i./ha): 80 |
| CCn1nnnc1NC(=O)c1ccc(C(F)(F)F)c(CS(C)(=O)=O)c1SC [Example 2-163] | 100 | 100 | 90 | 90% |  |
| CCn1nnnc1NC(=O)c1ccc(S(C)(=O)=O)c(CS(C)(=O)=O)c1C [Example 2-39] | 90 | 90 | 90 |  | herbicidal action CYPES (Cyperus esculentus; Dosage 80 g/ha): 80 |
| CCS(=O)(=O)Cc1c(C(F)(F)F)ccc(C(=O)Nc2nnnn2C)c1Cl [Example 1-301] | 80 | 90 | 100 | 100% |  |

Reference: US12492173B2, “Herbicidal substituted N-tetrazolyl aryl carboxamides” (Bayer Aktiengesellschaft, priority 2019, dated 2025)
